{"source": "patent US7378406B2", "about": "“Use of antiprogestins for prophylaxis and treatment of hormone-dependent diseases” (Schering AG, priority 2000, dated 2008)", "key": {"[1]": {"test_system": "DMBA-induced mammary carcinoma of the rat", "experiment": "DMBA-induced breast cancer model in rat (therapy experiment/dose-response study)", "assay_type": "in vivo, rat (female Sprague-Dawley)", "protocol": "Immature female Sprague-Dawley rats (49-51 days old; 10 animals/group) were used in this study. Mammary tumors were induced by a single oral administration of 10 mg 7,12-dimethylbenz[a]anthracene (DMBA, Serva/Heidelberg). Rats with at least one established tumor with a size of more than 150 mm^2 were treated for 4 weeks by: 1) solvent control, 2) ovariectomy at treatment start, 3) antiprogestin (I), 0.5 mg/kg s.c., 4) antiprogestin (I), 2 mg/kg s.c., 5) antiprogestin (I), 5 mg/kg s.c., 6) antiprogestin (I), 10 mg/kg s.c., and 7) onapristone, 5 mg/kg, s.c., daily. As a parameter for growth inhibition the change of tumor area (in % with respect to initial tumor size) determined by weekly caliper measurements was used. For statistical analysis of intergroup differences of mean values the Kruskal-Wallis-test was used."}, "[2]": {"test_system": "NMU-induced mammary carcinoma of the rat", "experiment": "NMU-induced breast cancer model in rat (therapy experiment)", "assay_type": "in vivo, rat (female Sprague-Dawley)", "conditions": "4 weeks", "protocol": "Tumors were induced by a single intravenous injection of NMU (nitrosomethylurea, 50 mg/kg) in female Sprague-Dawley rats (obtained from Tierzucht Schönwalde, age 50-55 days). Starting 10 days later, rats with at least one established tumor were treated for 4 weeks by: 1) solvent control, 2) ovariectomy at treatment start, 3) antiprogestin (I), 1.0 mg/kg/day, 4) antiprogestin (I), 0.5 mg/kg/day and 5) onapristone, 5 mg/kg/day. As a parameter for growth inhibition the change of tumor area (in % of initial tumor size) determined by weekly caliper measurements was used. For statistical analysis of intergroup differences of mean values the Kruskal-Wallis-test was used."}, "[3]": {"test_system": "DMBA-induced mammary carcinoma of the rat", "experiment": "DMBA-induced breast cancer model in rat (prevention experiment)", "assay_type": "in vivo, rat (female Sprague-Dawley)", "conditions": "6 days/week, start 20 days after DMBA, end of experiment", "protocol": "Immature female Sprague-Dawley rats (49-51 days old; 10 animals/group) were used in this study. The carcinogen 7,12-dimethylbenz[a]anthracene (DMBA) was given as a single oral administration (10 mg). Treatment was started 20 days later as followed: 1) solvent control, 2) ovariectomy at treatment start, 3) tamoxifen, 1 mg/kg s.c., 4) antiprogestin (I), 3 mg/kg, s.c., 6 days/week. Rats were examined weekly for breast tumors by palpation. As a parameter for the prophylactic effect the tumor incidence (number of animals/group with tumors in %) was determined. For a further description and evaluation of DMBA and NMU prevention models, see R. G. Metha, European Journal of Cancer 36 (2000), pp. 1275-1282."}, "[4]": {"test_system": "NMU-induced mammary carcinoma of the rat", "experiment": "NMU-induced breast cancer model in rat (prevention experiment)", "assay_type": "in vivo, rat (female Sprague-Dawley)", "conditions": "3 mg/kg s.c., 6 days/week, start 10 days after NMU; end of experiment, after 27 weeks", "protocol": "Tumors were induced by a single intravenous injection of NMU (nitrosomethylurea, 50 mg/kg) in female Sprague-Dawley rats (obtained from Tierzucht Schonwalde, age 50-55 days). Treatment was started 10 days later as followed: 1) solvent control, 2) ovariectomy at treatment start, 3) tamoxifen, 3 mg/kg s.c., 4) antiprogestin (I), 3 mg/kg, s.c., 5) letrozole, 3 mg/kg s.c., 6) raloxifen, 3 mg/kg s.c., 6 days/week. Rats were examined weekly for breast tumors by palpation. As a parameter for the prophylactic effect the tumor incidence (number of animals/group with tumors in %) was determined. For a further description and evaluation of DMBA and NMU prevention models, see R. G. Metha, European Journal of Cancer 36 (2000), pp. 1275-1282."}, "T47D breast cancer cells": {"test_system": "T47D breast cancer cells", "experiment": "T47D human xenograft (therapy experiment)", "assay_type": "in vivo, human xenograft in Fox Chase scid mice", "conditions": "10 mg/kg s.c.; scid mice with estradiol pellets", "protocol": "(§1) Female Fox Chase scid mice (M&B) were supplemented with estradiol pellets (Innovative Research of America). T47D breast cancer cells, obtained from cell culture and suspended in matrigel, were implanted s.c. in the inguinal region of the mice. Treatment was started when the tumors were approximately 25 mm^2 in size. Treatment was continued until progression of the tumors. Experimental groups were: 1) control (vehicle), 2) ovariectomy, 3) antiprogestin (I), 10 mg/kg s.c.Tumor area was determined by caliper measurements. The Kruskal Wallis test was used for statistical analysis of intergroup differences of mean values."}, "MCF7 breast cancer cells": {"test_system": "MCF7 breast cancer cells", "experiment": "MCF7 human xenograft (therapy experiment)", "assay_type": "in vivo, human xenograft in Fox Chase scid mice", "conditions": "10 mg/kg s.c.; scid mice with estradiol pellets", "protocol": "as §1, with “MCF7” for “T47D”, “s.c. Tumor” for “s.c.Tumor”"}, "[5]": {"experiment": "Further endocrine side effects (general statement)"}, "[6]": {"experiment": "Bioavailability (general statement)", "assay_type": "in vivo", "conditions": "oral administration"}}}
{"smiles": "CN(C)c1ccc([C@H]2C[C@]3(C)[C@@H](CC[C@]3(O)CCCO)[C@@H]3CCC4=CC(=O)CCC4=C32)cc1", "note": "[Onapristone, onapristone, reference compound]", "values": [{"measurement": "tumor growth inhibition relative to antiprogestin (I)", "setting": "[1]; 5 mg/kg s.c. daily, 4 weeks", "result": "distinctly less effective than antiprogestin (I) at comparable doses"}, {"measurement": "tumor growth inhibition relative to antiprogestin (I) at 0.5 mg/kg", "setting": "[2]; 5 mg/kg/day", "result": "distinctly less effective than antiprogestin (I)"}]}
{"smiles": "CC/C(=C(\\c1ccccc1)c1ccc(OCCN(C)C)cc1)c1ccccc1", "note": "[tamoxifen, reference compound]", "values": [{"measurement": "tumor incidence (number of animals/group with tumors in %)", "setting": "[3]; 1 mg/kg s.c.", "result": 60, "unit": "%"}]}
{"smiles": "CC(=O)c1ccc([C@H]2C[C@@]3(C)[C@@H](CC[C@@]3(O)C(F)(F)C(F)(F)F)[C@@H]3CCC4=CC(=O)CCC4=C32)cc1", "note": "[antiprogestin (I), 11β-(4-acetylphenyl)-17β-hydroxy-17α-(1,1,2,2,2-pentafluoroethyl)-estra-4,9-dien-3-one]", "values": [{"measurement": "tumor incidence (number of animals/group with tumors in %)", "setting": "[3]; 3 mg/kg s.c., after 22 weeks", "result": 10, "unit": "%"}, {"measurement": "tumor growth (change of tumor area) compared with the control", "setting": "[1]; 0.5 mg/kg s.c. daily, 4 weeks", "result": "did not significantly prevent the tumor from growing"}, {"measurement": "rats with complete tumor regression", "setting": "[1]; 2 mg/kg s.c. daily, 4 weeks", "result": 50, "unit": "%"}, {"measurement": "tumor growth (change of tumor area), dose-response", "setting": "[1]; 2 mg/kg s.c. daily, 4 weeks", "result": "maximal growth inhibition"}, {"measurement": "tumor growth (change of tumor area), dose-response", "setting": "[1]; 10 mg/kg s.c. daily, 4 weeks (highest dose)", "result": "comparable to that of 2 mg/kg"}, {"measurement": "tumor growth (change of tumor area) compared with the control", "setting": "[1]; doses of or above 2 mg/kg s.c. daily, 4 weeks", "result": "significant inhibition of tumor growth"}, {"measurement": "tumor incidence (number of animals/group with tumors in %)", "setting": "[4]", "result": 10, "unit": "%"}, {"measurement": "tumor growth (change of tumor area) compared with the control", "setting": "[2]; 0.5 mg/kg/day", "result": "significant inhibition of tumor growth"}, {"measurement": "tumor growth (change of tumor area) compared with the control", "setting": "[2]; 1.0 mg/kg/day", "result": "significant inhibition of tumor growth"}, {"measurement": "tumor growth (tumor area)", "setting": "T47D breast cancer cells", "result": "inhibition of tumor growth, almost comparable to the effect of conventional estrogen deprivation therapy (ovariectomy)"}, {"measurement": "tumor growth (tumor area)", "setting": "MCF7 breast cancer cells", "result": "inhibition of tumor growth, almost comparable to the effect of conventional estrogen deprivation therapy (ovariectomy)"}, {"measurement": "further endocrine side effects, e.g. androgen, estrogen or antiglucocorticoid activity", "setting": "[5]", "result": "only very weak, if present at all"}, {"measurement": "bioavailability", "setting": "[6]", "result": "high"}]}
